{"source": "patent US20240057598A1", "about": "“USE OF 2-AMINO-3-METHYLHEXANOIC ACID AS PLANT IMMUNITY INDUCER” (NANJING AGRICULTURAL UNIVERSITY, priority 2020, published 2024)", "key": {"[1]": {"test_system": "Aerobacter aerogenes", "conditions": "cited from earlier work"}, "[2]": {"test_system": "wheat", "assay": "Induced resistance of wheat to high temperature stress", "format": "in vivo", "conditions": "for Dry weight of overground part / Fresh weight of overground part / Heat injury index: 45° C. 9 h, 7 days recovery", "protocol": "[…] A blank control was additionally set, and 0.02% Tween 20 was added as a surfactant. 4 groups of repetitions were set for each concentration, and a normal temperature blank control was set at the same time. Ryegrass seeds were weighed according to 0.8 g per pot, sowed in a pot with a diameter of 8.5 cm, and planted in a greenhouse at a temperature of 25° C., a humidity of 60%-70%, and a light intensity of 200 μmolm^−2s^−1 (12 h light/12 h dark). On the 8th day of the seedling stage, the ryegrass was sprayed with the 2-amino-3-methylhexanoic acid solutions on the leaves twice in 24 h. 24 h after the second treatment, the plants were transferred to a light incubator at a temperature of 45° C. for conducting high temperature stress treatment for 12 h, and then the plants were taken out and transferred to a greenhouse at a temperature of 25° C. for 7 days of recovery. The injured conditions of the plants were observed and counted, and the heat injury grade was calculated. […] After the counting, the fresh weight of the aboveground part of the plant was weighed, and then the aboveground part was baked in an 85° C. oven for 48 h to determine the dry weight.\nWheat seeds were weighed according to 1.5 g per pot, and planted by a method and under conditions the same as those of ryegrass. When the wheat grew for two weeks in the seedling stage, the experiment was conducted. High temperature stress was conducted for 9 h, and the treatment method and subsequent statistical indexes were the same as those of the ryegrass mentioned above."}, "[3]": {"test_system": "ryegrass", "assay": "Induced resistance of ryegrass to high temperature stress", "format": "in vivo", "conditions": "for Dry weight of overground part / Fresh weight of overground part / Heat injury index: 45° C. 12 h, 7 days recovery", "protocol": "2-amino-3-methylhexanoic acid was dissolved in distilled water and diluted with distilled water into solutions of 1 nM, 10 nM, 100 nM and 1,000 nM by gradient. A blank control was additionally set, and 0.02% Tween 20 was added as a surfactant. 4 groups of repetitions were set for each concentration, and a normal temperature blank control was set at the same time. Ryegrass seeds were weighed according to 0.8 g per pot, sowed in a pot with a diameter of 8.5 cm, and planted in a greenhouse at a temperature of 25° C., a humidity of 60%-70%, and a light intensity of 200 μmolm^−2s^−1 (12 h light/12 h dark). On the 8th day of the seedling stage, the ryegrass was sprayed with the 2-amino-3-methylhexanoic acid solutions on the leaves twice in 24 h. 24 h after the second treatment, the plants were transferred to a light incubator at a temperature of 45° C. for conducting high temperature stress treatment for 12 h, and then the plants were taken out and transferred to a greenhouse at a temperature of 25° C. for 7 days of recovery. The injured conditions of the plants were observed and counted, and the heat injury grade was calculated. […] After the counting, the fresh weight of the aboveground part of the plant was weighed, and then the aboveground part was baked in an 85° C. oven for 48 h to determine the dry weight."}, "[4]": {"test_system": "Pseudomonas syringae PstDC3000", "assay": "Induced resistance of Arabidopsis to Pseudomonas syringae infection", "format": "in vivo", "conditions": "for Number of bacteria in each milligram of leaf: Arabidopsis leaves, 3 days after inoculation; for Decrease of number of bacteria in each milligram of leaf: compared with blank control; for Decrease of disease index: versus blank control", "protocol": "2-amino-3-methylhexanoic acid was dissolved in sterile water and then diluted with sterile water into solutions of 1 nM, 10 nM, 100 nM, 1,000 nM and 10,000 nM by gradient. A blank control was additionally set, and 0.02% Tween 20 was added as a surfactant. Pseudomonas syringae PstDC3000 was spread on an LB plate and cultured at 28° C. for 48 h. Monoclonal colonies were selected and transferred into a 50 mL centrifuge tube containing 2 mL of a culture medium, and cultured on a shaker at 28° C. and 250 rpm. The change of the OD600 value of the bacterial solution was monitored every 1-2 h, and culture of bacteria was stopped before the OD600 value reached 0.8. 1 mL of bacterial solution was transferred into a 1.5 mL sterile centrifuge tube and centrifuged at 8,000 rpm for 2 min, and the precipitate was collected. The supernatant was removed, the precipitate was washed with 10 mM magnesium chloride three times and centrifuged, and finally the PstDC3000 was suspended in 10 mM magnesium chloride to make the OD600 value thereof reach 0.001 for use. Arabidopsis seeds were soaked in 75% alcohol for 3 min, then washed with sterile water 4 times, and sowed in a culture dish containing a ½ MS medium according to 12 seeds per culture dish. The ½ MS culture dish with seeds was vernalized at 4° C. for 3 days to break dormancy, and then placed in a culture room at 24° C. with a light intensity of 100 μEm^−2s^−1 (16 h light/8 h dark). When the seedlings grew for 2 weeks, the 2-amino-3-methylhexanoic acid of different concentrations was slowly poured into the culture dish until the whole Arabidopsis seedlings were submerged, and after 2-3 min, the treatment solution was poured out of the culture dish. The treatment was repeated once after 24 h and conducted twice in total. 24 h after the second treatment, the Arabidopsis leaves were inoculated with the PstDC3000 suspension (OD600=0.01) by the same submergence method. After inoculation, the culture dish was closed with a medical breathable adhesive tape, and placed in the culture room for further culture. 3 days later, the number of bacteria in different treatment groups was determined. The incidence of Arabidopsis was observed. The disease index was calculated by a formula the same as that in Example 1.\nGrading standard of disease caused by PstDC3000 (per leaf): • Grade 0: No diseased spot on the leaf surface. • Grade 1: The diseased spot area accounts for 0-10% of the whole leaf area. • Grade 2: The diseased spot area accounts for 10-25% of the whole leaf area. • Grade 3: The diseased spot area accounts for 25-50% of the whole leaf area. • Grade 4: The diseased spot area accounts for 50-75% of the whole leaf area. • Grade 5: The diseased spot area accounts for 75-100% of the whole leaf area."}, "[5]": {"conditions": "100 nM, compared with untreated control group"}}}
{"smiles": "CCCC(C)C(N)C(=O)O", "note": "(centres unmarked) [2-amino-3-methylhexanoic acid]", "values": [{"measurement": "Inhibitory effect", "setting": "[1]", "value": "no inhibitory effect"}, {"measurement": "Dry weight of overground part", "setting": "[2]; 10 nM", "value": "0.72 ± 0.04", "unit": "bc g"}, {"measurement": "Fresh weight of overground part", "setting": "[2]; 10 nM", "value": "1.76 ± 0.13", "unit": "c g"}, {"measurement": "Heat injury index", "setting": "[2]; 10 nM", "value": 85, "unit": "%"}, {"measurement": "Dry weight of overground part", "setting": "[2]; 100 nM", "value": "0.75 ± 0.04", "unit": "c g"}, {"measurement": "Fresh weight of overground part", "setting": "[2]; 100 nM", "value": "1.87 ± 0.12", "unit": "c g"}, {"measurement": "Heat injury index", "setting": "[2]; 100 nM", "value": 75, "unit": "%"}, {"measurement": "Dry weight of overground part", "setting": "[2]; 1,000 nM", "value": "0.78 ± 0.05", "unit": "bc g"}, {"measurement": "Fresh weight of overground part", "setting": "[2]; 1,000 nM", "value": "2.11 ± 0.30", "unit": "c g"}, {"measurement": "Heat injury index", "setting": "[2]; 1,000 nM", "value": 65, "unit": "%"}, {"measurement": "Decrease of heat injury index", "setting": "[2]; 10,000 nM", "value": 40, "unit": "%"}, {"measurement": "Dry weight of aboveground part higher than untreated control group", "setting": "[2]; 10,000 nM", "value": 31.94, "unit": "%"}, {"measurement": "Fresh weight of aboveground part higher than untreated control group", "setting": "[2]; 10,000 nM", "value": 102.84, "unit": "%"}, {"measurement": "Dry weight of overground part", "setting": "[2]; 10,000 nM", "value": "0.95 ± 0.04", "unit": "ab g"}, {"measurement": "Fresh weight of overground part", "setting": "[2]; 10,000 nM", "value": "3.57 ± 0.50", "unit": "b g"}, {"measurement": "Heat injury index", "setting": "[2]; 10,000 nM", "value": 40, "unit": "%"}, {"measurement": "Optimal use concentration to alleviate high temperature stress", "setting": "[3]", "value": 100, "unit": "nM"}, {"measurement": "Dry weight of overground part", "setting": "[3]; 1 nM", "value": "0.4 ± 0.01", "unit": "bc g"}, {"measurement": "Fresh weight of overground part", "setting": "[3]; 1 nM", "value": "1.96 ± 0.19", "unit": "b g"}, {"measurement": "Heat injury index", "setting": "[3]; 1 nM", "value": 70, "unit": "%"}, {"measurement": "Dry weight of overground part", "setting": "[3]; 10 nM", "value": "0.46 ± 0.04", "unit": "ab g"}, {"measurement": "Fresh weight of overground part", "setting": "[3]; 10 nM", "value": "2.14 ± 0.095", "unit": "g"}, {"measurement": "Heat injury index", "setting": "[3]; 10 nM", "value": 60, "unit": "%"}, {"measurement": "Dry weight of overground part", "setting": "[3]; 100 nM", "value": "0.44 ± 0.02", "unit": "nb g"}, {"measurement": "Fresh weight of overground part", "setting": "[3]; 100 nM", "value": "2.60 ± 0.02", "unit": "b g"}, {"measurement": "Heat injury index", "setting": "[3]; 100 nM", "value": 30, "unit": "%"}, {"measurement": "Increase of dry weight of aboveground part", "setting": "[3]; [5]", "value": 25, "unit": "%"}, {"measurement": "Increase of fresh weight of aboveground part", "setting": "[3]; [5]", "value": 162, "unit": "%"}, {"measurement": "Dry weight of overground part", "setting": "[3]; 1,000 nM", "value": "0.45 ± 0.01", "unit": "ab g"}, {"measurement": "Fresh weight of overground part", "setting": "[3]; 1,000 nM", "value": "2.42 ± 0.15", "unit": "b g"}, {"measurement": "Heat injury index", "setting": "[3]; 1,000 nM", "value": 30, "unit": "%"}, {"measurement": "Disease index", "setting": "[4]; 10 nM, Arabidopsis", "value": "45.00 ± 2.78", "unit": "b"}, {"measurement": "Number of bacteria in each milligram of leaf", "setting": "[4]; 10 nM", "value": "3.81 × 10^5 CPU/mg"}, {"measurement": "Decrease of number of bacteria in each milligram of leaf", "setting": "[4]; 10 nM", "value": 88.24, "unit": "%"}, {"measurement": "Decrease of disease index", "setting": "[4]; 10 nM", "value": 42.33}, {"measurement": "Number of bacteria in each milligram of leaf", "setting": "[4]; 100 nM", "value": "2.49×10^5 CPU/mg"}, {"measurement": "Decrease of number of bacteria in each milligram of leaf", "setting": "[4]; 100 nM", "value": 92.31, "unit": "%"}, {"measurement": "Decrease of disease index", "setting": "[4]; 100 nM", "value": 45.85}]}
